Data from the supplement of paper PMC10307832.

What was measured:
Assay in all cases: relative viability (nuclei count vs DMSO), 5 days (fraction); higher = more cells survive
BX 795 + Lapatinib = compound: O=C(NCCCNc1nc(Nc2cccc(NC(=O)N3CCCC3)c2)ncc1I)c1cccs1 [BX 795] + CS(=O)(=O)CCNCc1ccc(-c2ccc3ncnc(Nc4ccc(OCc5cccc(F)c5)c(Cl)c4)c3c2)o1 [Lapatinib] (partner 2 µM)
Summary of the method: (§1)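 Relative viability equals treated-well nuclei counts divided by vehicle-well nuclei counts. Counts came from 4× images of lung cancer cell lines grown in 1536-well plates for 5 days after pin-tool dosing on the day after seeding. Dosing used one drug alone or a fixed anchor-drug dose plus five library-drug doses (not always all listed) in √10 steps, and values are medians of duplicate plates.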

BX 795 + Crizotinib = compound: O=C(NCCCNc1nc(Nc2cccc(NC(=O)N3CCCC3)c2)ncc1I)c1cccs1 [BX 795] + C[C@@H](Oc1cc(-c2cnn(C3CCNCC3)c2)cnc1N)c1c(Cl)ccc(F)c1Cl [Crizotinib] (partner 1 µM)
Summary of the method: as §1

BX 795 + Vorinostat = compound: O=C(NCCCNc1nc(Nc2cccc(NC(=O)N3CCCC3)c2)ncc1I)c1cccs1 [BX 795] + O=C(CCCCCCC(=O)Nc1ccccc1)NO [Vorinostat] (partner 1 µM)
Summary of the method: as §1

BX 795 = compound: O=C(NCCCNc1nc(Nc2cccc(NC(=O)N3CCCC3)c2)ncc1I)c1cccs1 [BX 795]
Summary of the method: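 Five library-drug doses, separated by factors of √10, were pinned into 1536-well plates holding lung cancer cell lines after an overnight stay at 37 °C. Cells were fixed, permeabilised and Hoechst-stained in one step after 5 days without medium change, then imaged at 4×. Viability compares treated-well with vehicle-well nuclei, counted in MetaXpress, as a median across plates. Passing plates had control CV below 25% and at least one doubling.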

BX 795 + Luminespib = compound: O=C(NCCCNc1nc(Nc2cccc(NC(=O)N3CCCC3)c2)ncc1I)c1cccs1 [BX 795] + CCNC(=O)c1noc(-c2cc(C(C)C)c(O)cc2O)c1-c1ccc(CN2CCOCC2)cc1 [Luminespib] (partner 0.01 µM)
Summary of the method: as §1

Cell Line | relative viability (BX 795 + Lapatinib; first compound 0.04 µM) | relative viability (BX 795 + Lapatinib; first compound 0.1265 µM) | relative viability (BX 795 + Lapatinib; first compound 0.4 µM) | relative viability (BX 795 + Lapatinib; first compound 1.265 µM) | relative viability (BX 795 + Crizotinib; first compound 0.04 µM) | relative viability (BX 795 + Crizotinib; first compound 0.1265 µM) | relative viability (BX 795 + Crizotinib; first compound 0.4 µM) | relative viability (BX 795 + Crizotinib; first compound 1.265 µM) | relative viability (BX 795 + Vorinostat; first compound 0.04 µM) | relative viability (BX 795 + Vorinostat; first compound 0.1265 µM) | relative viability (BX 795 + Vorinostat; first compound 0.4 µM) | relative viability (BX 795 + Vorinostat; first compound 1.265 µM) | relative viability (BX 795; 0.04 µM) | relative viability (BX 795; 0.1265 µM) | relative viability (BX 795; 0.4 µM) | relative viability (BX 795; 1.265 µM) | relative viability (BX 795 + Luminespib; first compound 0.04 µM) | relative viability (BX 795 + Luminespib; first compound 0.1265 µM) | relative viability (BX 795 + Luminespib; first compound 0.4 µM) | relative viability (BX 795 + Luminespib; first compound 1.265 µM)
HCC-78 | 0.93 | 0.585 | 0.604 | 0.732 | 0.413 | 0.354 | 0.355 | 0.318 | 0.474 | 0.419 | 0.399 | 0.352 | 1.1 | 1 | 1.01 | 0.933 | – | – | – | –
HCC-366 | 0.834 | 1.11 | 0.858 | 1.12 | 0.541 | 0.616 | 0.188 | 0.313 | 0.311 | 0.295 | 0.224 | 0.0717 | 1.02 | 1.02 | 0.944 | 0.945 | – | – | – | –
HCC-827 | 0.186 | 0.18 | 0.215 | 0.191 | 0.935 | 0.923 | 0.892 | 0.712 | 0.756 | 0.689 | 0.901 | 0.79 | 1 | 1.02 | 1.04 | 1.01 | 0.746 | 0.657 | 0.823 | 0.644
HOP-62 | 1.09 | 1.1 | 1.29 | 1.07 | 1.04 | 0.953 | 1.13 | 0.941 | 0.807 | 0.638 | 0.546 | 0.456 | 0.963 | 1.06 | 1.21 | 1 | 0.81 | 1.01 | 1.08 | 1.02
IA-LM | 0.94 | 0.994 | 1.5 | 0.544 | 0.78 | 0.936 | 1.32 | 0.546 | 0.79 | 1.06 | 0.992 | 0.892 | 1.02 | 1.03 | 1.12 | 0.86 | – | – | – | –
LC-2-ad | 0.89 | 0.962 | 0.7 | 0.274 | 0.558 | 0.316 | 0.325 | 0.402 | 0.755 | 0.759 | 0.595 | 0.37 | 1.04 | 0.924 | 0.912 | 0.661 | 1.16 | 1.03 | 0.938 | 0.662
LCLC-97TM1 | 1.05 | 0.842 | 0.926 | 0.362 | 0.475 | 0.431 | 0.306 | 0.209 | 0.774 | 0.725 | 0.768 | 0.468 | 1.11 | 1.02 | 1.1 | 0.716 | 0.939 | 0.657 | 0.774 | 0.456
LCLC-103H | – | – | – | – | 0.979 | 1.1 | 1.01 | 1.04 | 0.675 | 0.811 | 0.699 | 0.695 | 1.02 | 1.01 | 0.937 | 0.985 | 0.941 | 0.84 | 1.06 | 0.737
LK-2 | 1.02 | 0.912 | 0.83 | 0.797 | 0.238 | 0.171 | 0.21 | 0.193 | 0.398 | 0.37 | 0.286 | 0.239 | 0.998 | 1.02 | 0.863 | 0.929 | 0.186 | 0.174 | 0.175 | 0.189
LOU-NH91 | 0.698 | 0.744 | 0.708 | 0.715 | 0.768 | 0.721 | 0.715 | 0.796 | 0.846 | 0.955 | 0.842 | 0.903 | 1.01 | 0.967 | 0.982 | 0.961 | 0.372 | 0.3 | 0.303 | 0.307
LU99A | 1.05 | 1.03 | 0.714 | 0.665 | 0.646 | 0.593 | 0.455 | 0.361 | 0.472 | 0.485 | 0.37 | 0.363 | 0.946 | 0.894 | 0.84 | 0.778 | 0.288 | 0.278 | 0.226 | 0.294
LXF-289 | 0.867 | 0.896 | 0.904 | 0.843 | 0.86 | 0.82 | 0.778 | 0.47 | 0.838 | 0.719 | 0.811 | 0.674 | 0.962 | 1 | 1.02 | 0.9 | 0.707 | 0.693 | 0.828 | 0.51
NCI-H441 | – | – | – | – | 0.874 | 0.695 | 0.878 | 0.508 | 0.893 | 0.843 | 0.848 | 0.613 | 1.39 | 1.24 | 1.48 | 0.802 | 0.323 | 0.297 | 0.333 | 0.278
NCI-H1395 | 0.815 | 0.819 | 0.595 | 0.948 | – | – | – | – | 0.574 | 0.624 | 0.404 | 0.516 | 0.839 | 0.858 | 0.586 | 0.633 | 0.641 | 0.634 | 0.471 | 0.555
NCI-H1792 | 0.872 | 0.903 | 0.981 | 0.842 | 1.01 | 1.08 | 1.09 | 0.892 | – | – | – | – | 0.93 | 0.818 | 1.12 | 0.867 | 0.477 | 0.336 | 0.432 | 0.384
NCI-H1793 | 0.534 | 0.682 | 0.875 | 0.785 | – | – | – | – | 0.888 | 0.753 | 0.803 | 0.293 | 1.09 | 0.917 | 1.05 | 0.808 | 0.153 | 0.137 | 0.168 | 0.182
NCI-H2342 | – | – | – | – | – | – | – | – | 0.754 | 0.734 | 0.651 | 0.726 | 1.03 | 0.939 | 0.924 | 0.978 | 0.793 | 0.588 | 0.79 | 0.743
SW 900 | – | – | – | – | – | – | – | – | 0.482 | – | 0.611 | 0.604 | 0.856 | 0.759 | 1.04 | 0.813 | 0.17 | 0.157 | 0.19 | 0.169
